{"source": "patent US7048917B1", "about": "“Fat-binding polymers” (Genzyme Corporation, priority 1998, dated 2006)", "tested_on": "Sprague Dawly rats", "assay": "Fat-Binding Evaluation via Paper Staining", "type": "in vivo", "conditions": "male rats, chow diet with 15 percent lard; lipase inhibitor (Orlistat) 0.04 percent by weight, no polymer; average of 24 experiments", "protocol": "The model consists of male, Sprague Dawly rats, 160 g, housed individually in wire mesh cages. They were acclimated to the facility for six days, during which time they were fed a chow based diet supplemented with 15 percent lard by weight. Feed and water were provided ad libitum. The animals were then randomly assigned to groups of four and fed test diets for three days. The test diet was also a chow based feed. A lipase inhibitor (Orlistat) was added at 0.04 percent by weight and the polymer was added at 0.30 percent by weight. They were mixed in the feed as a powder followed by the addition of the supplemented fat in the form of lard at 15 percent by weight. During the final 24 hours of the treatment period an 8.5″×11″ sheet of white paper was placed beneath each cage. One inch squares were drawn on the paper creating a grid of 80 squares. When oil in the form of unabsorbed dietary triglyceride seeps from the stool, it stains the paper. This can be readily discerned from urine if the papers were allowed to dry for six hours. The oil stains confer translucence to the paper. The squares that contain these oil stains were counted and expressed as a percentage of total area stained."}
{"smiles": "CCCCCCCCCCC[C@@H](C[C@@H]1OC(=O)[C@H]1CCCCCC)OC(=O)[C@H](CC(C)C)NC=O", "note": "[Control 2, Orlistat]", "values": [{"measurement": "Percentage of Paper Stained", "value": "39 ± 6", "unit": "%"}]}
